System: Cell Necrosis
Test: Cell necrosis assay / cell viability assay (necrosis inhibitor activity)
Format: cell-based
Details: not given

Compound	EC50
O=C(N1CC(Oc2ccc3ccccc3c2)C1)N1N=CC[C@H]1c1cc(F)cc(F)c1 [Compound 203, (S)(5-(3,5-difluorophenyl)-4,5-dihydro-1H-pyrazol-1-yl)(3-(naphthalen-2-yloxy)azetidin-1-yl)methanone]	1 to 1000 nM

Same assay, conditions: necrosis inhibitor activity; compounds outside 14-191; read-out: EC50

Compound	EC50
O=C1COc2cc(F)c(OC3CN(C(=O)N4N=CC[C@H]4c4cccc(F)c4)C3)cc2N1 [Compound 200, (S)-7-fluoro-6-((1-(5-(3-fluorophenyl)-4,5-dihydro-1H-pyrazole-1-carbonyl)azetidin-3-yl)oxy)-2H-benzo[b][1,4]oxazin-3(4H)-one]	1 to 1000 nM
O=C1COc2ccc(OC3CN(C(=O)N4N=CC[C@H]4c4cc(F)cc(F)c4)C3)cc2N1 [Compound 201, (S)-6-((1-(5-(3,5-difluorophenyl)-4,5-dihydro-1H-pyrazole-1-carbonyl)azetidin-3-yl)oxy)-2H-benzo[b][1,4]oxazin-3(4H)-one]	1 to 1000 nM
O=C1CCc2cc(F)c(OC3CN(C(=O)N4N=CC[C@H]4c4cc(F)cc(F)c4)C3)cc2N1 [Compound 202, (S)-7-((1-(5-(3,5-difluorophenyl)-4,5-dihydro-1H-pyrazole-1-carbonyl)azetidin-3-yl)oxy)-6-fluoro-3,4-dihydroquinolin-2(1H)-one]	1 to 1000 nM
O=C(N1CC(Oc2ccc3ccc(=O)[nH]c3c2)C1)N1N=CCC1c1cc(F)cc(F)c1 (stereo not drawn) [Compound 204, 7-((1-(5-(3,5-difluorophenyl)-4,5-dihydro-1H-pyrazole-1-carbonyl)azetidin-3-yl)oxy)quinolin-2(1H)-one]	1 to 1000 nM
O=C(N1CC(Oc2ccc3ccc(=O)[nH]c3c2)C1)N1N=CC[C@H]1c1cc(F)cc(F)c1 [Compound 205, (S)-7-((1-(5-(3,5-difluorophenyl)-4,5-dihydro-1H-pyrazole-1-carbonyl)azetidin-3-yl)oxy)quinolin-2(1H)-one]	1 to 1000 nM
O=C1CCc2ccc(OC3CN(C(=O)N4N=CC[C@H]4c4cc(F)cc(F)c4)C3)cc2N1 [Compound 206, (S)-7-((1-(5-(3,5-difluorophenyl)-4,5-dihydro-1H-pyrazole-1-carbonyl)azetidin-3-yl)oxy)-3,4-dihydroquinolin-2(1H)-one]	1 to 1000 nM
O=C(N1CC(Oc2ccc3cn[nH]c3c2)C1)N1N=CC[C@H]1c1cc(F)cc(F)c1 [Compound 207]	1 to 1000 nM
O=C(N1CC(Oc2ccc3ccc(=O)[nH]c3c2F)C1)N1N=CC[C@H]1c1cc(F)cc(F)c1 [Compound 208, (S)-7-((1(5-(3,5-difluorophenyl)-4,5-dihydro-1H-pyrazole-1-carbonyl)azetidin-3-yl)oxy)-8-fluoroquinolin-2(1H)-one]	1 to 1000 nM
O=C1Cc2ccc(OC3CN(C(=O)N4N=CC[C@H]4c4cc(F)cc(F)c4)C3)cc2N1 [Compound 209, (S)-6-((1-(5-(3,5-difluorophenyl)-4,5-dihydro-1H-pyrazole-1-carbonyl)azetidin-3-yl)oxy)indolin-2-one]	1 to 1000 nM
O=C(N1CC(Oc2ncc(F)cc2F)C1)N1N=CCC1c1cc(F)cc(F)c1 (stereo not drawn) [Compound 210, (5-(3,5-difluorophenyl)-4,5-dihydro-1H-pyrazol-1-yl)(3-((3,5-difluoropyridin-2-yl)oxy)azetidin-1-)methanone]	1 to 1000 nM
O=C(N1CC(Oc2ccc(OCc3ccccc3)nc2)C1)N1N=CCC1c1cc(F)cc(F)c1 (stereo not drawn) [Compound 211, (3-((6-(benzyloxy)pyridin-3-yl)oxy)azetidin-1-yl)(5-(3,5-difluorophenyl)-4,5-dihydro-1H-pyrazol-1-yl)methanone]	1 to 1000 nM
O=C(N1CC(Oc2ccc(F)cn2)C1)N1N=CCC1c1cc(F)cc(F)c1 (stereo not drawn) [Compound 212, (5-(3,5-difluorophenyl)-4,5-dihydro-1H-pyrazol-1-yl)(3-((5-fluoropyridin-2-yl)oxy)azetidin-1-yl)methanone]	1 to 1000 nM
O=C(N1CC(Oc2ccc(F)cc2F)C1)N1N=CCC1c1cncc(F)c1 (stereo not drawn) [Compound 213, (3-(2,4-difluorophenoxy)114zetidine-1-yl)(5-(5-fluoropyridin-3-yl)-4,5-dihydro-1H-pyrazol-1-yl)methanone]	1 to 1000 nM
O=C(N1CC(Oc2ccc(OCc3ccccc3)cc2)C1)N1N=CC[C@H]1c1cc(F)cc(F)c1 [Compound 214, (S)-(3-(4-(benzyloxy)phenoxy)zetidine-1-yl)(5-(3,5-difluorophenyl)-4,5-dihydro-1H-pyrazol-1-yl)methanone]	1 to 1000 nM
N#Cc1cc(OC2CN(C(=O)N3N=CC[C@H]3c3cc(F)cc(F)c3)C2)ncn1 [Compound 215, (S)-6-((1-(5-(3,5-difluorophenyl)-4,5-dihydro-1H-pyrazole-1-carbonyl)115zetidine-3-yl)oxy)pyrimidine-4-carbonitrile]	1 to 1000 nM
O=C(N1CC(Oc2ccc3occc3c2)C1)N1N=CCC1c1cc(F)cc(F)c1 (stereo not drawn) [Compound 216, (3-(benzofuran-5-yloxy)115zetidine-1-yl)(5-(3,5-difluorophenyl)-4,5-dihydro-1H-pyrazol-1-yl)methanone]	1 to 1000 nM
O=C(N1CC(Oc2ccc(O)nc2)C1)N1N=CCC1c1cc(F)cc(F)c1 (stereo not drawn) [Compound 217, (5-(3,5-difluorophenyl)-4,5-dihydro-1H-pyrazol-1-yl)(3-((6-hydroxypyridin-3-yl)oxy)115zetidine-1-yl)methanone]	1 to 1000 nM
CNC(=O)c1ccc(OC2CN(C(=O)N3N=CC[C@H]3c3cc(F)cc(F)c3)C2)cc1 [Compound 218, (S)-4-((1-(5-(3,5-difluorophenyl)-4,5-dihydro-1H-pyrazole-1-carbonyl)azetidin-3-yl)oxy)-N-methylbenzamide]	1 to 1000 nM

Compound	EC50
O=C(N1CC(Oc2ccc(-c3ncc[nH]3)cc2)C1)N1N=CC[C@H]1c1cc(F)cc(F)c1 [Compound 219, (S)-(3-(4-(1H-imidazol-2-yl)phenoxy)azetidin-1-yl)(5-(3,5-difluorophenyl)-4,5-dihydro-1H-pyrazol-1-yl)methanone]	1 to 1000 nM
NC(=O)c1cc(OC2CN(C(=O)N3N=CC[C@H]3c3cc(F)cc(F)c3)C2)ccc1F [Compound 220]	1 to 1000 nM
NC(=O)c1cc(F)c(OC2CN(C(=O)N3N=CC[C@H]3c3cc(F)cc(F)c3)C2)c(F)c1 [Compound 222, (S)-4-((1-(5-(3,5-difluorophenyl)-4,5-dihydro-1H-pyrazole-1-carbonyl)azetidin-3-yl)oxy)-3,5-difluorobenzamide]	1 to 1000 nM
O=C(N1CC(Oc2ccc3cc[nH]c3c2)C1)N1N=CC[C@H]1c1cc(F)cc(F)c1 [Compound 223, (S)-(3-((1H-indol-6-yl)oxy)azetidin-1-yl)(5-(3,5-difluorophenyl)-4,5-dihydro-1H-pyrazol-1-yl)methanone]	1 to 1000 nM
O=C1Cc2ccc(OC3CN(C(=O)N4N=CCC4c4cc(F)cc(F)c4)C3)cc2N1 (stereo not drawn) [Compound 224, 6-((1-(5-(3,5-difluorophenyl)-4,5-dihydro-1H-pyrazole-1-carbonyl)azetidin-3-yl)oxy)indolin-2-one]	1 to 1000 nM
CC(=O)Nc1ccnc(N2CCN(C(=O)N3N=CC[C@H]3c3cc(F)cc(F)c3)CC2)n1 [Compound 225]	1 to 1000 nM
O=C(Nc1nc(N2CCN(C(=O)N3N=CC[C@H]3c3cc(F)cc(F)c3)CC2)ncc1F)C1CC1 [Compound 226, (S)—N-(2-(4-(5-(3,5-difluorophenyl)-4,5-dihydro-1H-pyrazole-1-carbonyl)piperazin-1-yl)-5-fluoropyrimidin-4-yl)cyclopropanecarboxamide]	1 to 1000 nM
NC(=O)c1ccc(OC2CN(C(=O)N3N=CCC3c3cc(F)cc(F)c3)C2)cc1Cl (stereo not drawn) [Compound 227, 2-chloro-4-((1-(5-(3,5-difluorophenyl)-4,5-dihydro-1H-pyrazole-1-carbonyl)azetidin-3-yl)oxy)benzamide]	1 to 1000 nM
CC(=O)Nc1cccc(OC2CN(C(=O)N3N=CCC3c3cc(F)cc(F)c3)C2)c1 (stereo not drawn) [Compound 228, N-(3-((1-(5-(3,5-difluorophenyl)-4,5-dihydro-1H-pyrazole-1-carbonyl)azetidin-3-yl)oxy)phenyl)acetamide]	1 to 1000 nM
Nc1cccc(OC2CN(C(=O)N3N=CCC3c3cc(F)cc(F)c3)C2)c1 (stereo not drawn) [Compound 229, (3-(3-aminophenoxy)azetidin-1-yl)(5-(3,5-difluorophenyl)-4,5-dihydro-1H-pyrazol-1-yl)methanone]	1 to 1000 nM
CC(=O)N(C)c1cccc(OC2CN(C(=O)N3N=CCC3c3cc(F)cc(F)c3)C2)c1 (stereo not drawn) [Compound 230, N-(3-((1-(5-(3,5-difluorophenyl)-4,5-dihydro-1H-pyrazole-1-carbonyl)azetidin-3-yl)oxy)phenyl)-N-methylacetamide]	1 to 1000 nM
CNc1cccc(OC2CN(C(=O)N3N=CCC3c3cc(F)cc(F)c3)C2)c1 (stereo not drawn) [Compound 231, (5-(3,5-difluorophenyl)-4,5-dihydro-1H-pyrazol-1-yl)(3-(3-(methylamino)phenoxy)azetidin-1-yl)methanone]	1 to 1000 nM
N#Cc1ccnc(N2CCN(C(=O)N3N=CC[C@H]3c3cc(F)cc(F)c3)CC2)c1 [Compound 232, (S)-2-(4-(5-(3,5-difluorophenyl)-4,5-dihydro-1H-pyrazole-1-carbonyl)piperazin-1-yl)isonicotinonitrile]	1 to 1000 nM
N#Cc1cccc(N2CCN(C(=O)N3N=CC[C@H]3c3cc(F)cc(F)c3)CC2)n1 [Compound 233, (S)-6-(4-(5-(3,5-difluorophenyl)-4,5-dihydro-1H-pyrazol-1-carbonyl)piperazin-1-yl)picolinonitrile]	1 to 1000 nM
O=C(N1CC(Oc2ccc3cn[nH]c3c2)C1)N1N=CC[C@H]1c1cc(F)cc(F)c1 [Compound 234, (S)(3-((1H-indazol-6-yl)oxy)azetidin-1-yl)(5-(3,5-difluorophenyl)-4,5-dihydro-1H-pyrazol-1-yl)methanone]	1 to 1000 nM
N#Cc1ccc(F)c(OC2CN(C(=O)N3N=CC[C@H]3c3cc(F)cc(F)c3)C2)c1 [Compound 235, (S)-3-((1-(5-(3,5-difluorophenyl)-4,5-dihydro-1H-pyrazole-1-carbonyl)azetidin-3-yl)oxy)-4-fluorobenzonitrile]	1 to 1000 nM
N#Cc1cc(OC2CN(C(=O)N3N=CC[C@H]3c3cc(F)cc(F)c3)C2)ccc1F [Compound 236, (S)-5-((1-(5-(3,5-difluorophenyl)-4,5-dihydro-1H-pyrazole-1-carbonyl)azetidin-3-yl)oxy)-2-fluorobenzonitrile]	1 to 1000 nM

Source: patent publication US12662469B2 (SIRONAX LTD, priority 2018, dated 2026)
